In patent publication US20060241172A1, “Benzodioxane and benzodioxolane derivatives and uses thereof” (Wyeth, priority 2005, published 2006) one finds Ki, Emax and EC50 data, which are given here for 31 molecules.

pEC50, pKi: −log10 of the molar value.

Test [1] concerns the target T1, human 5-hydroxytryptamine-2C (h5-HT2C) receptor (Homo sapiens, UniProt P28335).
T1 construct: expressed in transfected cells; host or cells: CHO (Chinese Hamster Ovary) cells; membranes
T1 sequence (P28335 33-458): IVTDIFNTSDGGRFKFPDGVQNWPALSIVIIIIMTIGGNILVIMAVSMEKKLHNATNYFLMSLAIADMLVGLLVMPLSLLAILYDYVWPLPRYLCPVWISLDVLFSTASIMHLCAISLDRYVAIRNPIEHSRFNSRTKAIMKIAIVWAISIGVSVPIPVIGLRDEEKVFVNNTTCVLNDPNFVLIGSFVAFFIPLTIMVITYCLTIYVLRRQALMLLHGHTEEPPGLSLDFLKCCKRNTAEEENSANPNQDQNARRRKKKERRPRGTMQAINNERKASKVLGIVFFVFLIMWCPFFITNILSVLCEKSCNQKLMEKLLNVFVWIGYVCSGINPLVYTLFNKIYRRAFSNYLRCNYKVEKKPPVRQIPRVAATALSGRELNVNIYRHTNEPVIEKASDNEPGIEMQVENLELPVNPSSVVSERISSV
Nature of the test: 5-HT2C binding: [125I]DOI displacement in membranes of transfected CHO cells. The following applies: read-out: 5-HT2C Binding Ki avg.

In the next test the target is T2, human 5-HT2C receptor (Homo sapiens, UniProt P28335).
T2 sequence (P28335 33-458): T1 sequence (P28335 33-458)
Kind of test: 5-HT2C receptor-stimulated calcium mobilization (FLIPR) in CHO cells. In kind it is cell-based. The following applies: for Emax: CHO, read-out: 5-HT2C Function EMax (%); for pEC50: read-out: 5-HT2C Function EC50.

With `NCC1COc2cccc(-c3cc(Cl)ccc3Cl)c2O1` (stereo not drawn) [Compound I-8, {[8-(2,5-Dichlorophenyl)-2,3-dihydro-1,4-benzodioxin-2-yl]methyl}amine], the pKi (as a rule, the Ki on a negative log10 scale, so that one unit is a factor of ten) in test [1] is > 7.30. Moreover, on human 5-HT2C receptor, the Emax (commonly the size of the effect at its maximum, as opposed to the concentration needed) amounted to 60% and the pEC50 (usually the EC50 on a negative log10 scale, so that one unit is a factor of ten) is > 7.00.
Regarding `COc1cccc(-c2cccc3c2OC(CN)CO3)c1OC` (stereo not drawn) [Compound I-9, {[8-(2,3-Dimethoxyphenyl)-2,3-dihydro-1,4-benzodioxin-2-yl]methyl}amine], the negative logarithm of the Ki (pKi) in test [1] is > 7.30. Besides, on human 5-HT2C receptor, the Emax was 50% and the pEC50 was > 7.00.
With `Cc1cccc(-c2cccc3c2OC(CN)CO3)c1C` (stereo not drawn) [Compound I-10, {[8-(2,3-Dimethylphenyl)-2,3-dihydro-1,4-benzodioxin-2-yl]methyl}amine], the pKi in test [1] is < 6.70. Moreover, at human 5-HT2C receptor, the Emax came out at 50% and the pEC50 was 6.30 to 7.00.
The matching figures for `Cc1ccc(C)c(-c2cccc3c2OC(CN)CO3)c1` (stereo not drawn) [Compound I-11, {[8-(2,5-Dimethylphenyl)-2,3-dihydro-1,4-benzodioxin-2-yl]methyl}amine]: < 6.70, 60% and 6.30 to 7.00.
For `Cc1cccc(C)c1-c1cccc2c1OC(CN)CO2` (stereo not drawn) [Compound I-12, {[8-(2,6-Dimethylphenyl)-2,3-dihydro-1,4-benzodioxin-2-yl]methyl}amine], in test [1], the pKi was > 7.30. Besides, on human 5-HT2C receptor, the Emax worked out at 70% and the pEC50 was > 7.00.
`NCC1COc2cccc(-c3cccc(F)c3F)c2O1` (stereo not drawn) [Compound I-13, {[8-(2,3-Difluorophenyl)-2,3-dihydro-1,4-benzodioxin-2-yl]methyl}amine]: the pKi in test [1] is > 7.30. At human 5-HT2C receptor, the Emax came out at 70% and the pEC50 is > 7.00.
For `NCC1COc2cccc(-c3ccc(F)cc3F)c2O1` (stereo not drawn) [Compound I-14, {[8-(2,4-Difluorophenyl)-2,3-dihydro-1,4-benzodioxin-2-yl]methyl}amine], the pKi in test [1] was > 7.30. At human 5-HT2C receptor, the Emax is 70% and the pEC50 is > 7.00.
For `NCC1COc2cccc(-c3cc(F)ccc3F)c2O1` (stereo not drawn) [Compound I-15, {[8-(2,5-Difluorophenyl)-2,3-dihydro-1,4-benzodioxin-2-yl]methyl}amine], in test [1], the pKi was > 7.30. Further, at human 5-HT2C receptor, the Emax came out at 60% and the pEC50 is > 7.00.
The matching figures for `COc1ccc(Cl)cc1-c1cccc2c1OC(CN)CO2` (stereo not drawn) [Compound I-16, {[8-(5-Chloro-2-methoxyphenyl)-2,3-dihydro-1,4-benzodioxin-2-yl]methyl}amine]: 6.70 to 7.30, 60% and > 7.00.
On the same counts, the results for `CNCC1COc2cccc(-c3ccccc3F)c2O1` (stereo not drawn) [Compound I-18, {[8-(2-Fluorophenyl)-2,3-dihydro-1,4-benzodioxin-2-yl]methyl}methylamine] are > 7.30, 50% and > 7.00.
On the same counts, the results for `CNCC1COc2cccc(-c3ccccc3OC)c2O1` (stereo not drawn) [Compound I-19, {[8-(2-Methoxyphenyl)-2,3-dihydro-1,4-benzodioxin-2-yl]methyl}methylamine] are < 6.70, 20% and 6.30 to 7.00.
For the molecule `CNCC1COc2cccc(-c3ccccc3C(F)(F)F)c2O1` (stereo not drawn) [Compound I-20, N-Methyl-1-{8-[2-(trifluoromethyl)phenyl]-2,3-dihydro-1,4-benzodioxin-2-yl}methanamine], the pKi in test [1] was 6.70 to 7.30. Moreover, on human 5-HT2C receptor, the Emax was found to be 40% and the pEC50 was < 6.30.
For the molecule `CNCC1COc2cccc(-c3ccccc3Cl)c2O1` (stereo not drawn) [Compound I-21, {[8-(2-Chlorophenyl)-2,3-dihydro-1,4-benzodioxin-2-yl]methyl}methylamine], in test [1], the pKi was > 7.30. In addition, at human 5-HT2C receptor, the Emax was determined as 40% and the pEC50 is > 7.00.
For `CNCC1COc2cccc(-c3cccc(OC)c3OC)c2O1` (stereo not drawn) [Compound I-30, {[8-(2,3-Dimethoxyphenyl)-2,3-dihydro-1,4-benzodioxin-2-yl]methyl}methylamine], in test [1], the pKi was 6.70 to 7.30. Also, the pEC50 on human 5-HT2C receptor is < 6.30.
Take `CNCC1COc2cccc(-c3cc(Cl)ccc3OC)c2O1` (stereo not drawn) [Compound I-31, {[8-(5-Chloro-2-methoxyphenyl)-2,3-dihydro-1,4-benzodioxin-2-yl]methyl}methylamine]: in test [1], the pKi is < 6.70. For the same molecule, on human 5-HT2C receptor, the Emax amounted to 20% and the pEC50 was 6.30 to 7.00.
Take `CCNCC1COc2cccc(-c3ccc(Cl)cc3Cl)c2O1` (stereo not drawn) [Compound I-33, N-{[8-(2,4-Dichlorophenyl)-2,3-dihydro-1,4-benzodioxin-2-yl]methyl}ethanamine]: the pKi in test [1] is 6.70 to 7.30. Also, on human 5-HT2C receptor, the maximum response (Emax) was determined as 30% and the pEC50 was < 6.30.
Turning to `CCCNCC1COc2cccc(-c3ccc(Cl)cc3Cl)c2O1` (stereo not drawn) [Compound I-35, N-{[8-(2,4-Dichlorophenyl)-2,3-dihydro-1,4-benzodioxin-2-yl]methyl}propan-1-amine], the pKi in test [1] was 6.70 to 7.30. Besides, the pEC50 at human 5-HT2C receptor is < 6.30.
On to `CC(C)NCC1COc2cccc(-c3ccccc3Cl)c2O1` (stereo not drawn) [Compound I-36, N-{[8-(2-Chlorophenyl)-2,3-dihydro-1,4-benzodioxin-2-yl]methyl}propan-2-amine], for which the pKi in test [1] was < 6.70. At human 5-HT2C receptor, the negative logarithm of the EC50 (pEC50) was < 6.30.
With `CC(C)NCC1COc2cccc(-c3ccc(Cl)cc3Cl)c2O1` (stereo not drawn) [Compound I-37, N-{[8-(2,4-Dichlorophenyl)-2,3-dihydro-1,4-benzodioxin-2-yl]methyl}propan-2-amine], in test [1], the pKi is < 6.70. Further, at human 5-HT2C receptor, the Emax turned out to be 20% and the pEC50 is < 6.30.
The matching figures for `CN(C)CC1COc2cccc(-c3ccccc3Cl)c2O1` (stereo not drawn) [Compound I-38, {[8-(2-Chlorophenyl)-2,3-dihydro-1,4-benzodioxin-2-yl]methyl}dimethylamine]: > 7.30, 30% and 6.30 to 7.00.
Regarding `CN(C)CC1COc2cccc(-c3ccc(Cl)cc3Cl)c2O1` (stereo not drawn) [Compound I-39, {[8-(2,4-Dichlorophenyl)-2,3-dihydro-1,4-benzodioxin-2-yl]methyl}dimethylamine], in test [1], the negative logarithm of the Ki (pKi) was > 7.30. On human 5-HT2C receptor, the Emax worked out at 20% and the pEC50 is 6.30 to 7.00.
The matching figures for `C=CCNCC1COc2cccc(-c3ccc(Cl)cc3Cl)c2O1` (stereo not drawn) [Compound I-40, N-{[8-(2,4-Dichlorophenyl)-2,3-dihydro-1,4-benzodioxin-2-yl]methyl}prop-2-en-1-amine]: < 6.70, 30% and < 6.30.
On to `Clc1ccccc1-c1cccc2c1OC(CNCC1CC1)CO2` (stereo not drawn) [Compound I-41, {[8-(2-Chlorophenyl)-2,3-dihydro-1,4-benzodioxin-2-yl]methyl}(cyclopropylmethyl)-amine], for which the pKi in test [1] was 6.70 to 7.30. In addition, on human 5-HT2C receptor, the Emax amounted to 20% and the pEC50 is < 6.30.
`Clc1ccc(-c2cccc3c2OC(CNCC2CC2)CO3)c(Cl)c1` (stereo not drawn) [Compound I-42, (Cyclopropylmethyl) {[8-(2,4-dichlorophenyl)-2,3-dihydro-1,4-benzodioxin-2-yl]methyl}amine]: in test [1], the pKi is < 6.70. Also, the pEC50 on human 5-HT2C receptor was < 6.30.
Consider `Clc1ccccc1-c1cccc2c1OC(CNC1CC1)CO2` (stereo not drawn) [Compound I-43, N-{[8-(2-Chlorophenyl)-2,3-dihydro-1,4-benzodioxin-2yl]methyl}cyclopropanamine], for which the pKi in test [1] was < 6.70. Further, on human 5-HT2C receptor, the Emax came out at 30% and the pEC50 was < 6.30.
Regarding `Clc1ccc(-c2cccc3c2OC(CNC2CC2)CO3)c(Cl)c1` (stereo not drawn) [Compound I-44, N-{[8-(2,4-Dichlorophenyl)-2,3-dihydro-1,4-benzodioxin-2-yl]methyl}cyclopropanamine], in test [1], the pKi is 6.70 to 7.30. For the same molecule, the pEC50 on human 5-HT2C receptor was < 6.30.
Consider `Clc1ccc(-c2cccc3c2OC(CNC2CCC2)CO3)c(Cl)c1` (stereo not drawn) [Compound I-45, N-{[8-(2,4-Dichlorophenyl)-2,3-dihydro-1,4-benzodioxin-2-yl]methyl}cyclobutanamine], for which, in test [1], the pKi was < 6.70. On human 5-HT2C receptor, the Emax is 30% and the pEC50 was < 6.30.
The matching figures for `NC[C@H]1COc2cc(F)cc(-c3c(Cl)cccc3Cl)c2O1` [Compound I-47, {[(2S)-8-(2,6-Dichlorophenyl)-6-fluoro-2,3-dihydro-1,4-benzodioxin-2-yl]methyl}amine]: > 7.30, 60% and > 7.00.
For `C[C@]1(CN)COc2cccc(-c3ccccc3Cl)c2O1` [Compound I-49, {[(2S)-8-(2-Chlorophenyl)-2-methyl-2,3-dihydro-1,4-benzodioxin-2-yl]methyl}amine], the pKi in test [1] is > 7.30. Besides, on human 5-HT2C receptor, the Emax stood at 70% and the pEC50 is < 6.30.
With `NC[C@H]1COc2cccc(-c3ccccc3C(F)(F)F)c2O1` [Compound I-57, 1-{(2S)-8-[2-(trifluoromethyl)phenyl]-2,3-dihydro-1,4-benzodioxin-2-yl}methanamine], the pKi in test [1] was > 7.30. Moreover, the Emax at human 5-HT2C receptor was 50%.
With `NC[C@H]1COc2cc(Cl)cc(-c3ccccc3Cl)c2O1` [Compound I-58, (2S)-[6-Chloro-8-(2-chloro-phenyl)-2,3-dihydro-benzo[1,4]dioxin-2-yl]-methylamine], the pKi in test [1] was > 7.30. Also, on human 5-HT2C receptor, the Emax came out at 50% and the pEC50 was > 7.00.
